Results as given in US5721238A, “2,8-disubstituted quinazolinones” (Bayer Aktiengesellschaft, priority 1995, dated 1998).

What was measured:
Type in all cases: biochemical
PDE II = test: Inhibition of the phosphodiesterases in vitro: PDE II (cGMP-stimulatable); settings: cGMP-stimulatable PDE II from porcine or bovine myocardia; 3HcAMP substrate 10^-6 mol/l, 10^-6 mol/l non-labelled cGMP; pH 7.5; 30 minutes
Experimental: (§1) The cGMP-stimulatable PDE II, the cGMP-inhibitable PDE III and the cAMP-specific PDE IV were isolated from either porcine or bovine myocardia. The Ca-calmodulin-stimulatable PDE I was isolated from the porcine aorta or porcine brain. The cGMP-specific PDE V was obtained from the porcine intestine, porcine aorta and/or human blood platelets. Purification was carried out by anion exchange chromatography on MonoQ^R Pharmacia, essentially by the method of M. Hoey and Miles D. Houslay, Biochemical Pharmacology, Volume 40, 193-202 (1990).
(§2) The enzyme activity is determined in a test batch of 100 μl in 20 mM Tris/HCl buffer of pH 7.5 which contains 5 mM MgCl2, 0.1 mg/ml of bovine serum albumin and either 800 Bq of ^3 HcAMP or ^3 HcGMP. The final concentration of the corresponding nucleotide is 10^-6 mol/l. The reaction is started by addition of the enzyme and the amount of enzyme is chosen such that about 50% of the substrate is converted during the incubation time of 30 minutes. To test the cGMP-stimulatable PDE II, ^3 HcAMP is used as the substrate and 10^-6 mol/l of non-labelled cGMP is added to the batch. To test the Ca-calmodulin-dependent PDE I, 1 μM CaCl2 and 0.1 μM calmodulin are also added to the reaction batch. The reaction is stopped by addition of 100 μl of acetonitrile which contains 1 mM cAMP and 1 mM AMP. 100 μl of the reaction batch are separated on the HPLC and the cleavage products are determined quantitatively "online" using a flow-through scintillation counter. The substance concentration at which the rate of reaction is reduced by 50% is measured.

PDE I = test: Inhibition of the phosphodiesterases in vitro: PDE I (Ca-calmodulin-stimulatable); settings: Ca-calmodulin-stimulatable PDE I from porcine aorta or porcine brain; nucleotide 10^-6 mol/l; 1 μM CaCl2, 0.1 μM calmodulin; pH 7.5; 30 minutes
Experimental: as §1, §2

PDE V = test: Inhibition of the phosphodiesterases in vitro: PDE V (cGMP-specific); settings: cGMP-specific PDE V from porcine intestine, porcine aorta and/or human blood platelets; nucleotide 10^-6 mol/l; pH 7.5; 30 minutes
Experimental: as §1, §2

**Q.** How did the IC50 (PDE II) turn out when `CCCCCC(O)C(OC)c1cccc2c(=O)[nH]c(-c3ccccc3OCCC)nc12` (stereo not drawn) [Example 14, 2-(2-n-Propoxyphenyl)-8-(1-methoxy-2-hydroxy-1-heptyl)-quinazolin-4(3H)-one] was run?
**A.** The IC50 was 5 µM.

**Q.** And the IC50 (PDE I)?
**A.** Its IC50 is 5 µM.

**Q.** What about the IC50 (PDE V) of the same compound?
**A.** Its IC50 is 3 µM.

**Q.** Which IC50 (PDE II) does the source give for `CCCOc1ccccc1-c1nc2c(C(OC)C(O)Cc3ccccc3)cccc2c(=O)[nH]1` (stereo not drawn) [Example 15, 2-(2-n-Propoxyphenyl)-8-(3-phenyl-1-methoxy-2-hydroxy-1-propyl)-quinazolin-4(3H)-one] here?
**A.** Its IC50 is 5 µM.

**Q.** What about the IC50 (PDE I) of the same compound?
**A.** The IC50 was 3 µM.

**Q.** With `CCCOc1ccccc1-c1nc2c(C(OC)C(O)CCc3ccccc3)cccc2c(=O)[nH]1` (stereo not drawn) [Example 16, 2-(2-n-Propoxyphenyl)-8-(4-phenyl-1-methoxy-2-hydroxy-1-butyl)-quinazolin-4(3H)-one] as the compound, how does the IC50 (PDE II) read?
**A.** The IC50 was 5 µM.

**Q.** What about the IC50 (PDE V) of the same compound?
**A.** The IC50 was 5 µM.

**Q.** What does the source list for `CCCCCC(O)C(CC)c1cccc2c(=O)[nH]c(-c3ccccc3OCCC)nc12` (stereo not drawn) [Example 20, 2-(2-n-Propoxyphenyl)-8-(4-hydroxy-3-nonyl)-quinazolin-4(3H)-one]?
**A.** IC50 (PDE II): 2 µM; IC50 (PDE I): 10 µM; IC50 (PDE V): 5 µM

**Q.** For `CCCOc1ccc(S(=O)(=O)N2CCOCC2)cc1-c1nc2c(C(C)CCCc3ccccc3)cccc2c(=O)[nH]1` (stereo not drawn) [Example 29, 2-(2-n-Propoxy-5-morpholinosulphonylphenyl)-8-(5-phenyl-2-pentyl)-quinazolin-4-(3H)-one], which IC50 (PDE II) is on record?
**A.** The IC50 was 0.5 µM.

**Q.** And the IC50 (PDE V)?
**A.** The IC50 was 1 µM.
